Measurements as given in US20250270200A1, “CTPS1 INHIBITORS AND USES THEREOF” (Nimbus Clotho, Inc., priority 2022, published 2025).
Read-outs that look alike come from different tables or passages of the source.

Molecular target: T1, human CTPS1 (Homo sapiens, UniProt P17812)
T1 sequence (P17812 1-591): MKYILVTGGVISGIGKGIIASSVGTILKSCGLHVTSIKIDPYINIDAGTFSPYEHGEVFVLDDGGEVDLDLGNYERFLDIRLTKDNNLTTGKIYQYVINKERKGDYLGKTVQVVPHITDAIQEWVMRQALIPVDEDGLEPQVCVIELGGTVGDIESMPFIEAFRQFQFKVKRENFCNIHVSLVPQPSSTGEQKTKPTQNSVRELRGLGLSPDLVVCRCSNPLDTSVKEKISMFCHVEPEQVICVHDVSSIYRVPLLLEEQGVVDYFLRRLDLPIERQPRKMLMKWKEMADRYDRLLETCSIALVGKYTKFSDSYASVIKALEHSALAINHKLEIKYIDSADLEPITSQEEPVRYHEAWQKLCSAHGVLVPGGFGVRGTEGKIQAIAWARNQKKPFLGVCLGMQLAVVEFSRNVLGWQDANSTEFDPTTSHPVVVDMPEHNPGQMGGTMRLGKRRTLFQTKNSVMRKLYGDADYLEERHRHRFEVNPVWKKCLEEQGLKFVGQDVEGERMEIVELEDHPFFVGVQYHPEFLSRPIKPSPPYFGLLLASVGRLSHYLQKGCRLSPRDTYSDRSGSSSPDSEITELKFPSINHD
Experiment: ADP-Glo assay, human CTPS1 enzyme inhibition
Type: biochemical
Conditions: read-out: ADP-Glo_WT_hCTPS1—25 nM_IC50 (IC50)
How it was run: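 ADP-Glo luminescence quantified ADP produced by 25 nM purified human CTPS1 (full length, FLAG-His tagged) at 25° C within the linear phase. Final substrates: ATP 120 μM, UTP 160 μM, GTP 60 μM, L-glutamine 100 μM; 1% DMSO; pH 7.4 HEPES buffer with Mg2+, KCl, DTT. Compound pre-incubated with enzyme 10 min, then with ATP/UTP 10 min.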

[1] = wild-type human CTPS1, 25 nM enzyme, ADP-Glo

| SMILES | IC50 [1] [nM] | IC50 (wild-type human CTPS1 25 nM, ATP 120 μM, UTP 160 μM, GTP 60 μM, L-glutamine 100 μM, 25 degrees C.) [nM] |
| --- | --- | --- |
| CCOc1cncc(-c2cnc(C(=O)N[C@@H](CN3CC[C@](C)(O)C3)c3cc(NS(=O)(=O)C4CC4)ccn3)s2)n1 [I-130, N-((S)-1-(4-(cyclopropanesulfonamido)pyridin-2-yl)-2-((S)-3-hydroxy-3-methylpyrrolidin-1-yl)ethyl)-5-(6-ethoxypyrazin-2-yl)thiazole-2-carboxamide] | 5 to 25 | – |
| CCOc1cncc(-c2cnc(C(=O)N[C@H](CN3CCOC[C@H]3C)c3cc(NS(=O)(=O)C4CC4)ccn3)s2)n1 (single isomer, unassigned) [I-33] | 5 to 25 | – |
| CCOc1cncc(-c2cnc(C(=O)N[C@H](c3cc(NS(=O)(=O)C4CC4)ccn3)[C@H]3CCN(C4CCCC4)C3)s2)n1 [I-93, N-((S)-((S)-1-cyclopentylpyrrolidin-3-yl)(4-(cyclopropanesulfonamido)pyridin-2-yl)methyl)-5-(6-ethoxypyrazin-2-yl)thiazole-2-carboxamide] | 5 to 25 | – |
| O=C(N[C@@H](c1cc(NS(=O)(=O)C2CC2)ccn1)[C@@H]1COCCO1)c1ncc(-c2cnn3ccc(Cl)cc23)s1 [I-79, 5-(5-chloropyrazolo[1,5-a]pyridin-3-yl)-N-((S)-(4-(cyclopropanesulfonamido)pyridin-2-yl)((R)-1,4-dioxan-2-yl)methyl)thiazole-2-carboxamide] | 5 to 25 | – |
| CCOc1cncc(-c2cnc(C(=O)N[C@H](c3cc(NS(=O)(=O)C4CC4)ccn3)[C@H]3CCCN3C)s2)n1 [I-116, N-((S)-(4-(cyclopropanesulfonamido)pyridin-2-yl)((R)-1-methylpyrrolidin-2-yl)methyl)-5-(6-ethoxypyrazin-2-yl)thiazole-2-carboxamide] | 25 to 50 | – |
| COC[C@@H](NC(=O)c1ncc(-c2cnn3ccc(Cl)cc23)s1)c1nccc(NS(=O)(=O)C2CC2)c1F (single isomer, unassigned) [II-2] | – | 5 to 25 |
| COC[C@H](NC(=O)c1ccc(-c2cnn3ccc(Cl)cc23)cc1F)c1cc(NS(=O)(=O)C2CC2)ccn1 [I-284, (R)-4-(5-chloropyrazolo[1,5-a]pyridin-3-yl)-N-(1-(4-(cyclopropanesulfonamido)pyridin-2-yl)-2-methoxyethyl)-2-fluorobenzamide] | > 100 | – |
| O=C(N[C@H](c1cc(NS(=O)(=O)C2CC2)ccn1)C1CCOCC1)c1ncc(-c2cnn3ccc(Cl)cc23)s1 [I-85, (S)-5-(5-chloropyrazolo[1,5-a]pyridin-3-yl)-N-((4-(cyclopropanesulfonamido)pyridin-2-yl)(tetrahydro-2H-pyran-4-yl)methyl)thiazole-2-carboxamide] | 25 to 50 | – |
| O=C(N[C@@H](c1cc(NS(=O)(=O)C2CC2)ccn1)C1CCOCC1)c1ncc(-c2cnn3ccc(Cl)cc23)s1 [I-86, (R)-5-(5-chloropyrazolo[1,5-a]pyridin-3-yl)-N-((4-(cyclopropanesulfonamido)pyridin-2-yl)(tetrahydro-2H-pyran-4-yl)methyl)thiazole-2-carboxamide] | 5 to 25 | – |
| CCOc1cncc(-c2cnc(C(=O)N[C@H](Cn3ccnn3)c3cc(NS(=O)(=O)C4CC4)ccn3)s2)n1 [I-156, (R)-N-(1-(4-(cyclopropanesulfonamido)pyridin-2-yl)-2-(1H-1,2,3-triazol-1-yl)ethyl)-5-(6-ethoxypyrazin-2-yl)thiazole-2-carboxamide] | 5 to 25 | – |
| CCOc1cncc(-c2cnc(C(=O)N[C@]3(c4cc(NS(=O)(=O)C5CC5)ccn4)C[C@H](O)C3)s2)n1 [I-87, N-((1s,3s)-1-(4-(cyclopropanesulfonamido)pyridin-2-yl)-3-hydroxycyclobutyl)-5-(6-ethoxypyrazin-2-yl)thiazole-2-carboxamide] | ≤ 5 | – |
| CCOc1cncc(-c2cnc(C(=O)N[C@@H](c3cc(NS(=O)(=O)C4CC4)ccn3)[C@H](C)CN3CCCCC3)s2)n1 (stereo in doubt) [I-51, N-((1R,2R)-1-(4-(cyclopropanesulfonamido)pyridin-2-yl)-2-methyl-3-(piperidin-1-yl)propyl)-5-(6-ethoxypyrazin-2-yl)thiazole-2-carboxamide] | 5 to 25 | – |
